Reference: patent US8927520B2, “Antibacterial compounds” (Institut Pasteur, priority 2010, dated 2015)

Key:
[1] = tested on: Staphylococcus aureus S25 strain; test: Bactericidal activity assay; format: cell-based; settings: S. aureus, overnight at 37° C., inhibitor 1 to 100 μg/mL, CFU count
Description: 100 μL suspensions of S. aureus corresponding to 2.10^3 bacteria were incubated overnight at 37° C. with increasing concentrations of inhibitor (1 to 100 μg/mL). Bacterial killing (percent) was determined as the ratio of colony forming units after incubation with inhibitor to that of colony forming units after incubation with buffer alone. Data are mean values ±SD from three separate experiments. * indicates a statistical significance in Student's t-test of p<0.05.
The Staphylococcus aureus S25 strain, a human clinical isolate, was grown overnight in brain heart infusion (BHI) broth at 200 rpm and 37° C. Overnight cultures were diluted to OD600nm=0.05 in BHI-phosphate buffer saline (25% v/v). Bacteria were grown at 200 rpm and 37° C. until cultures reached OD600nm=0.5. Bacterial suspensions were adjusted to a concentration of 2.10^5 bacteriamL. In a microtiter plate, 2.10^3 bacteria were incubated overnight at 200 rpm and 37° C. with increasing concentrations of NADK inhibitor in 0.1 mL BHI-phosphate buffer saline (25% v/v) per well. To quantify the bactericidal activity, each bacterial suspension was serially diluted in BHI and plated on BHI agar plates in duplicates. Plates were incubated at 37° C. for 24 h to 48 h and the number of colony forming units was determined.

[2] = target: SaNADK (NADK from Staphylococcus aureus) (Staphylococcus aureus (strain COL), UniProt Q5HH78); test: NAD kinase activity assay (coupled Glucose-6-phosphate dehydrogenase, absorbance at 340 nm); format: biochemical; settings: Dixon plots; 2 mM ATP; NAD 0.2, 0.5 and 1 mM; read-out: Ki, NADK from Sa
Description: (§1) Expression, purification and activity assay. His-tagged LmNADK1 wild-type and His-tagged SaNADK were expressed and purified on cobalt-based IMAC resins (Clontech) as previously published^13. The NAD kinase activity was determined by measuring the absorbance at 340 nm to follow the formation of reduced NADP produced by a coupling enzyme (Glucose-6-phosphate dehydrogenase from yeast). Coupling enzyme and its substrate were purchased from Sigma-Aldrich. The assay was performed in a 0.5 mL sample of (50 mM Tris-HCl pH 7.4, 10 mM MgCl2, 1 mM Glucose-6-phosphate, 2 mM sodium citrate) containing Glucose-6-phosphate dehydrogenase and NADK at 30° C. using a spectrophotometer Eppendorf ECOM 6122.
(§2) For inhibitor assays, IC50 was determined, in the presence of 1 mM NAD and 4 mM ATP (for LmNADK1) or 2 mM ATP (for SaNADK). Dixon plots were used to determine KI in the presence of 4 mM ATP (for LmNADK11) or 2 mM ATP (for Sa NADK) and three NAD concentrations (0.2, 0.5 and 1 mM). It was also checked that the inhibitors had no effect on the coupling enzyme activity.

[3] = target: LmNADK1 (NADK from Lysteria monocytogenes) (Listeria monocytogenes serovar 1/2a (strain ATCC BAA-679 / EGD-e), UniProt Q8Y8D7); test: as above; format: biochemical; settings: for Ki: Dixon plots, 4 mM ATP, NAD 0.2, 0.5 and 1 mM, read-out: Ki, NADK from Lm; for Inhibition of LmNADK1 (in words): purified enzyme
Description: as §1, §2

[4] = target: NADK from Listeria monocytogenes (Listeria monocytogenes serovar 1/2a (strain ATCC BAA-679 / EGD-e), UniProt Q8Y8D7); settings: literature value; read-out: K (affinity), inhibition of NADK; cited from earlier work
[5] = tested on: Staphylococcus aureus S25 strain; settings: reference value for comparison; cited from earlier work

Compound | Concentration giving significant bactericidal activity [1] | Ki [2] | Ki [3] | Inhibition of LmNADK1 (in words) [3] | Ki [4] | Efficiency of reference compound (bactericidal concentration) [5]
Nc1ncnc2c1ncn2[C@@H]1O[C@H](CNCC#Cc2nc3c(N)ncnc3n2[C@@H]2O[C@H](CO)[C@@H](O)[C@H]2O)[C@@H](O)[C@H]1O [Inhibitor 19, 8-[3-N-(5′-Deoxyadenosin-5′-yl)aminoprop-1-yn-1-yl]adenosine] | 10 µg/mL | 5 µM | 10 µM | micromolar range | – | –
5′-Amino-5′-deoxyadenosin-8-yl-thio-N-[(5′-amino-5′-deoxy-adenosine)methyl]acetamide [Inhibitor 17] | 1 µg/mL | 50 µM | 30 µM | micromolar range | – | –
Di-5′-thioadenosine [DTA] | – | – | – | – | ~20 µM | –
CN[C@H](CC(C)C)C(=O)N[C@H]1C(=O)N[C@@H](CC(N)=O)C(=O)N[C@H]2C(=O)N[C@H]3C(=O)N[C@H](C(=O)N[C@H](C(=O)O)c4cc(O)cc(O)c4-c4cc3ccc4O)[C@H](O)c3ccc(c(Cl)c3)Oc3cc2cc(c3O[C@@H]2O[C@H](CO)[C@@H](O)[C@H](O)[C@H]2O[C@H]2C[C@](C)(N)[C@H](O)[C@H](C)O2)Oc2ccc(cc2Cl)[C@H]1O [vancomycin] | – | – | – | – | – | 8 µg/mL
8-[3-(Adenosin-5′-yl)methoxyprop-1-yn-1-yl]adenosine [Inhibitor 22] | 1 µg/mL | 15 µM | 20 µM | micromolar range | – | –
